# Test system: RAW
# Experiment: Inhibition of LPS-induced NO production in RAW 264.7 cells
# Type: functional, cell-based
# Conditions: Mus musculus
smiles,measurement,value
C=C1C[C@]23C[C@H](OC(=O)/C=C/c4ccc(O)c(O)c4)[C@H]1[C@@]2(C)CCCC3(C)C,IC50,6.3 µM

# Reference: ChEMBL document CHEMBL1147120, “Chemical constituents of malagasy Liverworts. 6. A myltaylane caffeate with nitric oxide inhibitory activity from Bazzania nitida” (J Nat Prod, 2007)
